Source: patent US20080305547A1, “Method for enhanced functional expression of cell receptors” (priority 2007, published 2008)

Key:
mOR-EG [1] = biological target: T1, mOR-EG (Mus musculus, UniProt Q920P2); assay: cAMP ELISA in transfected HEK293T cells expressing mOR-EG; assay type: cell-based, murine; conditions: cells transfected with mOR-EG, Ric-8B and Gαolf; 300 μM
T1 construct: expressed in transfected cells; host or cells: HEK293T
T1 sequence (Q920P2 1-313): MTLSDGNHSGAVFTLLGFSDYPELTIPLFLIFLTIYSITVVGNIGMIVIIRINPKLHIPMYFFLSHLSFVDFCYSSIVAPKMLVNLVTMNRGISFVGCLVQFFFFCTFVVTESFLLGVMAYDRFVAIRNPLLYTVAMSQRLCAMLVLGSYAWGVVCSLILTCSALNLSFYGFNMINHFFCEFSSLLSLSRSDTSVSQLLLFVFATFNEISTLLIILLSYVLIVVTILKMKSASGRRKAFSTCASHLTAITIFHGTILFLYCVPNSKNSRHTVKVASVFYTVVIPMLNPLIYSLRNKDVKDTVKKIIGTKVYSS
Experimental: (§1) These experiments were carried out in order to determine if Ric-8B amplifies signaling through odorant receptors (“ORs” hereafter). This was accomplished by using one of the murine ORs, i.e., first cloning murine OR-EG (“mOR-EG” hereafter), from murine genomic DNA via polymerase chain reaction (“PCR”), using standard method. Following this, receptor specificity was confirmed by functional expression of the rhodopsin tagged version of mOR-EG, in HEK293T cells. This is explained infra.
(§2) HEK293T cells were plated, at 0.5×10^5 cells/well, of a 96 well plate. The cells were cultured using standard conditions, for 16-20 hours, after which they were transfected, via the well known, lipofectamine method with mOR-EG cDNA that had been subcloned into the XboI and KpnI restriction sites of plasmid pcDNA 3.1 (−), Gαolf whose full length cDNA had been cloned from murine olfactory epithelium, and subcloned into the XboI site of pcDNA 3.1 (−) expression vector, and Ric-8B, whose full length encoding cDNA had been prepared the same way and then cloned into pcDNA3 vector, with a flag epitope, at the BamHI site of pcDNA3 were used. 100 ngs of each cDNA construct were used for transfection. After 3 hours of transfection, serum containing medium was replaced by serum free medium, and the cells were incubated for 40 hours. Then, additional serum free medium containing 300 μM of eugenol was added, after which cells were incubated for 10 minutes. Activity was determined, by using a commercially available, cAMP ELISA kit.
(§3) In these experiments, mOR-EG odorant specificity was tested, in cells which had also been transfected with Ric-8B and Gαolf Vanillin, nonenedoic acid, acetophenone, (−), limonene, heptanol, 2-heptanol, hexanol, and (+/−) cerveone were tested at high concentrations (300 μM).

mOR-EG [2] = biological target: T1, mOR-EG; assay: as above; assay type: cell-based, murine; conditions: HEK293T transfected with untagged mOR-EG and Gαolf; 300 μM, 10 minutes
mOR-EG [3] = biological target: T2, mOR-EG (Mus musculus, UniProt Q920P2); assay: as above; assay type: cell-based, murine; conditions: HEK293T transfected with rhodopsin tagged mOR-EG, Gαolf (and Ric-8B); 300 μM, 10 minutes
T2 construct: expressed in transfected cells; host or cells: HEK293T
T2 sequence (Q920P2 with tags, fused parts or gaps): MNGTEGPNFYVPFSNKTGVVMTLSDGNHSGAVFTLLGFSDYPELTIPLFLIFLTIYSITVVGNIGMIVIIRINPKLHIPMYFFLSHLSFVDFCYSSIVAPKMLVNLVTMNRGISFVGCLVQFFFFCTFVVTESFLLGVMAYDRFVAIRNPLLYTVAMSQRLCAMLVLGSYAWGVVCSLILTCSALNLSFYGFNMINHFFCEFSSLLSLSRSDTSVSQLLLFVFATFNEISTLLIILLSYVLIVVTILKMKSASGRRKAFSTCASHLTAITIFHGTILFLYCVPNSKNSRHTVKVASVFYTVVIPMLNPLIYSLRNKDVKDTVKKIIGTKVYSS
Experimental: as §1, §2, §3

mOR-S6 [4] = conditions: murine olfactory neurons, single cell RT-PCR; cited from earlier work
mOR-S6 [5] = assay: cAMP ELISA in transfected HEK293T cells expressing mOR-S6; assay type: cell-based, murine
Experimental: as §2
The same procedures set forth supra for isolating, cloning, and amplifying mOR-EG were used for the coding region of mOR-S6. Rhodopsin tagged mOR-S6 was also used. The same protocols were carried out as are discussed supra, using nonanedoic acid as the agonist.

rat OR-17 = biological target: T3, rat OR-17 (Rattus norvegicus, UniProt P23270); conditions: cited from earlier work
T3 sequence (P23270 1-327): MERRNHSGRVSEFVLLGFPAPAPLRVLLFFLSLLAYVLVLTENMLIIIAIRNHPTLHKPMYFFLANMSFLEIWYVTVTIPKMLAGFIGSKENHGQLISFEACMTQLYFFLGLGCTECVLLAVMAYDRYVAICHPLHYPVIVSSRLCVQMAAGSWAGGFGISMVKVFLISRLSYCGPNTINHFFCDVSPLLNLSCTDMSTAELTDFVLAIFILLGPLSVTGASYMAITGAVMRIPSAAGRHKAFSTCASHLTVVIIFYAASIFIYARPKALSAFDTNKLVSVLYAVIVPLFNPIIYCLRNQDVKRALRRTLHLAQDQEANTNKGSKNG

mOR-17 = biological target: T4, mOR-17 (Mus musculus, UniProt Q9QWU6); assay: cAMP ELISA in transfected HEK293T cells expressing mOR-17; assay type: cell-based, murine
T4 construct: expressed in transfected cells; host or cells: HEK293T
T4 sequence (Q9QWU6 1-327): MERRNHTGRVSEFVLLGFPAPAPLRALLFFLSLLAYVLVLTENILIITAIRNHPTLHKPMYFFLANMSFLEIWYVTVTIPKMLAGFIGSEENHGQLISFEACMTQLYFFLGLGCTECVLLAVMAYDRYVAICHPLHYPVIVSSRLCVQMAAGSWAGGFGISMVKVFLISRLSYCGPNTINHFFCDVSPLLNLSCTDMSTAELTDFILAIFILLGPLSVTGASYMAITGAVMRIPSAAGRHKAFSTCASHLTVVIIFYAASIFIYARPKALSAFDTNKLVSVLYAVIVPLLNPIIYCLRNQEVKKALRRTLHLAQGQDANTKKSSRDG
Experimental: as §2
To further this work, the same protocols as are described supra were carried out, using untagged mOR-17, Gαolf, Ric-8B, and RTP1.

OR-17 = biological target: T5, OR-17 (Mus musculus, UniProt Q9QWU6); conditions: GFP tagged mouse olfactory neurons endogenously expressing OR-17; cited from earlier work
T5 construct: mouse olfactory neurons which endogenously express OR-17; host or cells: mouse olfactory neurons
T5 sequence (Q9QWU6 1-327): T4 sequence (Q9QWU6 1-327)

murine form of OR-17 = biological target: T6, murine form of OR-17 (Mus musculus, UniProt Q9QWU6); conditions: co-expression with Gα/16 in HEK293 cells; cited from earlier work
T6 construct: host or cells: HEK293
T6 sequence (Q9QWU6 1-327): T4 sequence (Q9QWU6 1-327)

mOR-EG [6] = biological target: T2, mOR-EG; conditions: previously shown; cited from earlier work

Compound: C=C(C)[C@H]1CC=C(C)CC1 [limonene]
- stimulation of cAMP production (odorant specificity) (mOR-EG [1]): Only eugenol stimulated production of cAMP

Compound: CCCCCCO [hexanol]
- stimulation of cAMP production (odorant specificity) (mOR-EG [1]): Only eugenol stimulated production of cAMP

Compound: C=CCc1ccc(O)c(OC)c1 [eugenol]
- response to the agonist (cAMP) (mOR-EG [2]): did not respond
- increase in cAMP levels as compared to unstimulated cells (factor) (mOR-EG [3]): ~3
- stimulation of cAMP production (odorant specificity) (mOR-EG [1]): stimulated production of cAMP

Compound: C=C(C)C1CC=C(C)C(=O)C1 (racemic) [(+/−) cerveone, cerveone]
- stimulation of cAMP production (odorant specificity) (mOR-EG [1]): Only eugenol stimulated production of cAMP

Compound: O=C(O)CCCCCCCC(=O)O [nonanedoic acid]
- response of the OR to the odorant (mOR-S6 [4]): responded
- increase in cAMP production (mOR-S6 [5]; all four elements: rhodopsin tagged mOR-S6, Ric-8B, RTP1 and Gαolf): significant increase
- increase in cAMP production (mOR-S6 [5]; cells co-transfected with mOR-S6, Gαolf and Ric-8B): no significant increase
- increase in cAMP production (mOR-S6 [5]; cells co-transfected with mOR-S6 and Gαolf): no significant increase
- increase in cAMP production (mOR-S6 [5]; mOR-S6, Gαolf and RTP1 (RTP1 replaced Ric-8B)): slight, insignificant increase
- increase in cAMP production (mOR-S6 [5]; non-tagged mOR-S6 in parallel expression systems (Ric-8B, RTP1, Gαolf)): not observed
- stimulation of cAMP production (odorant specificity) (mOR-EG [1]): Only eugenol stimulated production of cAMP

Compound: CCCCCC(C)O (stereo not drawn) [2-heptanol]
- stimulation of cAMP production (odorant specificity) (mOR-EG [1]): Only eugenol stimulated production of cAMP

Compound: CCCCCCCCO [octanol]
- recognition of odorant by receptor (rat OR-17): recognizes

Compound: CC(=O)c1ccccc1 [acetophenone]
- stimulation of cAMP production (odorant specificity) (mOR-EG [1]): Only eugenol stimulated production of cAMP

Compound: CCCCCCC=O [heptanal]
- response of transfected cells to odorant (cAMP) (mOR-17; all four elements: untagged mOR-17, Gαolf, Ric-8B and RTP1): responded to heptanal specifically
- response of transfected cells to odorant (cAMP) (mOR-17; untagged mOR-17, Gαolf and RTP1 (RTP1 replaced Ric-8B)): did not
- response of transfected cells to odorant (cAMP) (mOR-17; untagged mOR-17, Gαolf and Ric-8B): responded
- recognition of odorant by receptor (OR-17): recognized
- recognition of odorant by receptor (murine form of OR-17): preferentially recognizes

Compound: COc1cc(C=O)ccc1O [Vanillin]
- stimulation of rhodopsin tagged mOR-EG (mOR-EG [6]): has been shown to stimulate
- stimulation of cAMP production (odorant specificity) (mOR-EG [1]): Only eugenol stimulated production of cAMP

Compound: CCCCCCCO [heptanol]
- stimulation of cAMP production (odorant specificity) (mOR-EG [1]): Only eugenol stimulated production of cAMP
